Reference: patent US6727246B2, “1-(aminoalkyl)-3-sulfonylindole-and-indazole derivatives as 5-hydroxytryptamine-6 ligands” (Wyeth, priority 2002, dated 2004)
Like-named read-outs stand apart in the source and are kept apart here.

Experiments:
[1] = molecular target: T1, human cloned 5-HT6 receptors (Homo sapiens, UniProt P50406); assay: 5-HT6 binding affinity, [3H]-LSD displacement on membranes of Hela cells expressing the cloned receptor; settings: for inhibition at 1 µM: read-out: % Inhibition at 1 μM
T1 construct: expressed in transfected cells; host or cells: Hela cells (membrane preparation)
T1 sequence (P50406 whole entry): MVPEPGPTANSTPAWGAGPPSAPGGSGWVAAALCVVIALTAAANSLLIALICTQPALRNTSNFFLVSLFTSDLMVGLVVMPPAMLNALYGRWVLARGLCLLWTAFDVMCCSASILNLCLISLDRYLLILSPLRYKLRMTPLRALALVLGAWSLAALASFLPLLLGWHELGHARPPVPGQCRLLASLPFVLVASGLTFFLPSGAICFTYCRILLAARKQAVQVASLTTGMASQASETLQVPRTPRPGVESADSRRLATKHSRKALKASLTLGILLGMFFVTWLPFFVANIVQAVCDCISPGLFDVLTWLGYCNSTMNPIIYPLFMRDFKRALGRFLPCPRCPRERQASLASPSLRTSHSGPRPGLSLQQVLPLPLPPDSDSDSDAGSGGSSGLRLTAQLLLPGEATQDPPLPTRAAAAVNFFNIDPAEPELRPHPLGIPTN

[2] = [3H]-LSD 3.0 nM, Hela cell membranes, 120 min at room temperature, read-out: 5-HT6 Binding Ki

| melting point | Ki [1, 2] [nM] | inhibition at 1 µM ([1]; 1 μM test compound, displacement of [3H]-LSD) [%] | Structure (SMILES) | Ki [1] [nM] | inhibition at 1 µM [1] [%] |
| --- | --- | --- | --- | --- | --- |
| 184 to 187 °C | 160 | – | CN(C)CCCCn1cc(S(=O)(=O)c2ccccc2)c2ccccc21 [Example 7] | – | – |
| 239 to 241 °C | 4 | – | CN(C)CCn1cc(S(=O)(=O)c2cccc3ccccc23)c2ccccc21 [Example 26] | – | – |
| 138 to 140 °C | 6 | – | CN(C)CCn1cc(S(=O)(=O)c2c(Cl)nc3sccn23)c2ccccc21 [Example 58] | – | – |
| 219 to 220 °C | 1010 | – | CN(C)CCn1cc(S(=O)(=O)Cc2ccccc2)c2ccccc21 [Example 31] | – | – |
| 200 to 206 °C | 141 | – | NCCn1cc(S(=O)(=O)c2ccccc2)c2ccc(Cl)cc21 [Example 44, 2-[6-chloro-3-(phenylsulfonyl)-1H-indol-1-yl]ethylamine] | – | – |
| 198 to 201 °C | – | 86 | COc1ccc2c(c1)c(S(=O)(=O)c1ccccc1)cn2CCN [Example 21, 2-[5-methoxy-3-(phenylsulfonyl)-1H-indol-1-yl]ethylamine] | – | – |
| 178 to 183 °C | 25 | – | Cc1ccc(S(=O)(=O)c2cn(CCN)c3ccccc23)cc1 [Example 45] | – | – |
| – | 16 | – | CN(C)CCn1cc(S(=O)(=O)c2ccccc2OC(F)(F)F)c2ccccc21 [Example 57] | – | – |
| 192 to 194 °C | 55 | – | CN(C)CCn1nc(S(=O)(=O)c2cccc(F)c2)c2ccccc21 [Example 37] | – | – |
| – | 23 | – | CN(C)CCn1cc(S(=O)(=O)c2ccccc2)c2ccc(-c3ccccc3)cc21 [Example 27] | – | – |
| 210 to 211 °C | 13 | – | CN(C)CCn1cc(S(=O)(=O)c2cccc(F)c2)c2ccccc21 [Example 25] | – | – |
| – | 74 | – | CN(C)CCn1nc(S(=O)(=O)c2ccccc2)c2ccccc21 [Example 35] | – | – |
| 223 to 225 °C | 644 | – | O=S(=O)(Cc1ccccc1)c1cn(CCN2CCCCC2)c2ccccc12 [Example 32] | – | – |
| – | 92 | – | NCCCn1cc(S(=O)(=O)c2ccccc2)c2ccccc21 [Example 5, 3-[3-(phenylsulfonyl)-1H-indol-1-yl]propan-1-amine] | – | – |
| – | 59 | – | COc1ccc2c(c1)c(S(=O)(=O)c1ccccc1)cn2CCNCc1ccccc1 [Example 39] | – | – |
| 207 to 209 °C | 169 | – | CN(C)CCCn1cc(S(=O)(=O)c2ccccc2)c2ccccc21 [Example 15, N,N-dimethyl-3-[3-(phenylsulfonyl)-1H-indol-1-yl]propan-1-amine] | – | – |
| 240 to 242 °C | 98 | – | CN(C)CCn1cc(S(=O)(=O)c2ccccc2)c2cccc(Cl)c21 [Example 10, N,N-dimethyl-N-{2-[7-chloro-3-(phenylsulfonyl)-1H-indol-1-yl]-ethyl}amine] | – | – |
| 220 to 221 °C | 25 | – | NCCn1cc(S(=O)(=O)c2ccccc2)c2ccccc21 [Example 40, 2-[3-(phenylsulfonyl)-1H-indol-1-yl]ethylamine] | – | – |
| 131 to 132 °C | 51 | – | Cc1ccc2c(S(=O)(=O)c3ccccc3)cn(CCN(C)C)c2c1 [Example 49] | – | – |
| 208 to 209 °C | 44 | – | NCCn1nc(S(=O)(=O)c2ccccc2)c2ccccc21 [Example 36, 2-[3-(phenylsulfonyl)-1H-indazol-1-yl]ethylamine] | – | – |

The next lines start with the compound.

| Structure (SMILES) | melting point | Ki [1, 2] [nM] | inhibition at 1 µM ([1]; 1 μM test compound, displacement of [3H]-LSD) [%] | Ki [1] [nM] | inhibition at 1 µM [1] [%] |
| --- | --- | --- | --- | --- | --- |
| Cc1c(S(=O)(=O)c2ccccc2)c2ccccc2n1CCN(C)C [Example 24, N,N-dimethyl-N-{2-[2-methyl-3-(phenylsulfonyl)-1H-indol-1-yl]ethyl}amine] | 258 to 260 °C | – | – | 18 | – |
| CN(C)CCn1cc(S(=O)(=O)c2ccccc2)c2ccc(Cl)cc21 [Example 51] | 104 to 106 °C | – | – | 42 | – |
| CN(C)CCn1cc(S(=O)(=O)c2ccccc2)c2c(F)cccc21 [Example 9, N,N-dimethyl-N-{2-[4-fluoro-3-(phenylsulfonyl)-1H-indol-1-yl]ethyl}amine] | 201 to 203 °C | – | – | 98 | – |
| CN(C)CCn1cc(S(=O)(=O)c2ccccc2)c2ccc(F)cc21 [Example 50] | 100 to 102 °C | – | – | 46 | – |
| CN(C)CCn1cc(S(=O)(=O)c2ccccc2)c2cc(C#N)ccc21 [Example 8, 1-[2-(dimethylamino)ethyl]-3-(phenylsulfonyl)-1H-indole-5-carbonitrile] | 280 °C (dec.) | 45 | – | – | – |
| COc1cccc2c(S(=O)(=O)c3ccccc3)cn(CCN(C)C)c12 [Example 23] | 236 to 238 °C | – | – | 25 | – |
| COc1ccc2c(S(=O)(=O)c3ccccc3)cn(CCN(C)C)c2c1 [Example 48] | 121 to 122 °C | – | – | 23 | – |
| COc1cccc2c1c(S(=O)(=O)c1ccccc1)cn2CCN(C)C [Example 53] | 238 to 240 °C | 152 | – | – | – |
| CCc1cccc2c(S(=O)(=O)c3ccccc3)cn(CCN(C)C)c12 [Example 13, N,N-dimethyl-N-{2-[7-ethyl-3-(phenylsulfonyl)-1H-indol-1-yl]ethyl}amine] | 213 to 216 °C | – | – | 65 | – |
| Cc1cccc2c1c(S(=O)(=O)c1ccccc1)cn2CCN(C)C [Example 12, N,N-dimethyl-N-{2-[4-methyl-3-(phenylsulfonyl)-1H-indol-1-yl]ethyl}amine] | 220 to 221 °C | 183 | – | – | – |
| CN(C)CCn1cc(S(=O)(=O)c2ccccc2)c2cccc(C#N)c21 [Example 14, 1-[2-(dimethylamino)ethyl]-3-(phenylsulfonyl)-1H-indole-7-carbonitrile] | 134 to 136 °C | 755 | – | – | 35 |
| Cc1ccc(S(=O)(=O)c2cn(CCN(C)C)c3ccccc23)cc1 [Example 52] | > 250 °C | – | – | 57 | – |
| CN(C)CCn1cc(S(=O)(=O)c2ccccc2)c2cc(F)ccc21 [Example 47] | 103 to 104 °C | – | – | 44 | – |
| CN(C)CCn1cc(S(=O)(=O)c2ccccc2)c2ccccc21 [Example 3] | – | – | – | 20 | – |
| COc1ccc2c(c1)c(S(=O)(=O)c1ccccc1)cn2CCN(C)C [Example 20] | 214 to 216 °C | – | – | 23 | 88 |
| Cn1ccnc1S(=O)(=O)c1cn(CCN)c2ccccc12 [Example 46] | 158 to 160 °C | 573 | – | – | – |
| CN(C)CCn1cc(S(=O)(=O)c2ccccc2)c2c(Cl)cccc21 [Example 11, N,N-dimethyl-N-{2-[4-chloro-3-(phenylsulfonyl)-1H-indol-1-yl]-ethyl}amine] | 209 to 211 °C | 134 | – | – | – |
